Results as given in the NIST ThermoML archive (doi:10.1021/je049661s).

Columns and labels:
[1] = 101.3 kPa, Liquid
[2] = xn = mol fraction of the nth substance listed; settings: 101.3 kPa, Liquid

O=C1CCCCC1 [cyclohexanone]
[1]
Settings	mass density [kg/m3]	viscosity [mPa·s]
298.15 K	941	2.021
303.15 K	937.4	1.806
308.15 K	936.5	1.585

O=[N+]([O-])c1ccccc1 [nitrobenzene] + C1CCCCC1
[2]
Settings	mass density, 298.15 K [kg/m3]	mass density, 303.15 K [kg/m3]	mass density, 308.15 K [kg/m3]	viscosity, 298.15 K [mPa·s]	viscosity, 303.15 K [mPa·s]	viscosity, 308.15 K [mPa·s]
x2 = 0	1198.5	1193.6	1191.1	1.686	1.619	1.554
x2 = 0.0951	1160.4	1158	1156	1.589	1.527	1.489
x2 = 0.1908	1121.8	1119.7	1117.6	1.482	1.423	1.385
x2 = 0.2875	1080.5	1078	1075.5	1.369	1.313	1.276
x2 = 0.3866	1037.9	1035	1031.9	1.26	1.21	1.168
x2 = 0.4828	996	993	990	1.167	1.117	1.074
x2 = 0.5865	950.4	947.6	945	1.083	1.032	0.9873
x2 = 0.685	907.2	905	902.3	1.022	0.968	0.9182
x2 = 0.7901	861.6	860	856.6	0.9712	0.9142	0.8626
x2 = 0.896	816.9	814.4	809.1	0.9338	0.874	0.8182

C1CCCCC1 [cyclohexane]
[1]
Settings	mass density [kg/m3]	viscosity [mPa·s]
298.15 K	773.9	0.8945
303.15 K	768.6	0.8284
308.15 K	761.2	0.7637

O=[N+]([O-])c1ccccc1 [nitrobenzene]
[1]
Settings	mass density [kg/m3]	speed of sound [m/s]	viscosity [mPa·s]
298.15 K	1198.5	1648.4	1.686
303.15 K	1193.6	–	1.619
308.15 K	1191.1	–	1.554

C1CCCCC1 [cyclohexane] + O=[N+]([O-])c1ccccc1
[2], x1 = 1
Settings	mass density [kg/m3]	viscosity [mPa·s]
298.15 K	773.9	0.8945
303.15 K	768.6	0.8284
308.15 K	761.2	0.7637

O=[N+]([O-])c1ccccc1 [nitrobenzene] + O=C1CCCCC1
[2]
Settings	mass density, 298.15 K [kg/m3]	mass density, 303.15 K [kg/m3]	mass density, 308.15 K [kg/m3]	speed of sound, 298.15 K [m/s]	speed of sound, 303.15 K [m/s]	speed of sound, 308.15 K [m/s]	viscosity, 298.15 K [mPa·s]	viscosity, 303.15 K [mPa·s]	viscosity, 308.15 K [mPa·s]
x2 = 0	1198.5	1193.6	1191.1	1648.4	–	1961	1.686	1.619	1.554
x2 = 0.098	1169.6	1167.6	1166.8	1696	1842.8	1991	1.752	1.645	1.556
x2 = 0.1946	1141.8	1140.8	1140.3	1733	1873	2019.9	1.785	1.666	1.557
x2 = 0.2933	1114.5	1113.4	1112.9	1764.1	1901.5	2041.5	1.802	1.678	1.559
x2 = 0.3938	1087.5	1085.6	1084.9	1790	1927.7	2058.6	1.812	1.685	1.561
x2 = 0.495	1061.3	1058.9	1057.9	1811.2	1945	2069.7	1.827	1.695	1.562
x2 = 0.592	1036.9	1034.5	1033.4	1825.7	1957	2076.4	1.848	1.704	1.565
x2 = 0.6945	1011.6	1009.6	1008.6	1839.8	1962	2080.5	1.879	1.721	1.567
x2 = 0.7966	987.5	985.7	985	1848.3	1963	2080	1.921	1.749	1.571
x2 = 0.8973	963.4	961.9	961.4	1853.5	1964.1	2081.5	1.97	1.778	1.577

C1CCCCC1 [cyclohexane] + O=C1CCCCC1
[2], x1 = 1
Settings	mass density [kg/m3]	viscosity [mPa·s]
298.15 K	773.9	0.8945
303.15 K	768.6	0.8284
308.15 K	761.2	0.7637

O=C1CCCCC1 [cyclohexanone] + O=[N+]([O-])c1ccccc1
[2], x1 = 1
Settings	mass density [kg/m3]	speed of sound [m/s]	viscosity [mPa·s]
298.15 K	941	1847.7	2.021
303.15 K	937.4	–	1.806
308.15 K	936.5	–	1.585

O=C1CCCCC1 [cyclohexanone] + C1CCCCC1
[2]
Settings	mass density, 298.15 K [kg/m3]	mass density, 303.15 K [kg/m3]	mass density, 308.15 K [kg/m3]	viscosity, 298.15 K [mPa·s]	viscosity, 303.15 K [mPa·s]	viscosity, 308.15 K [mPa·s]
x2 = 0	941	937.4	936.5	2.021	1.806	1.585
x2 = 0.0964	921.6	917.9	916.6	1.852	1.661	1.485
x2 = 0.2003	901.3	897.6	895.7	1.682	1.522	1.384
x2 = 0.2916	883.8	880.2	878.3	1.541	1.406	1.296
x2 = 0.3895	866	862.8	860.3	1.403	1.294	1.203
x2 = 0.4894	–	845.5	842.6	–	1.184	1.112
x2 = 0.4895	848.9	–	–	1.275	–	–
x2 = 0.5886	–	828.7	825.6	–	1.084	1.025
x2 = 0.5887	832.5	–	–	1.163	–	–
x2 = 0.6957	815.4	811.6	807.5	1.063	0.9925	0.9408
x2 = 0.7951	800.3	796.3	791.3	0.9917	0.9237	0.8704
x2 = 0.8968	–	781.8	775.5	–	0.8707	0.8101
x2 = 0.8969	786.5	–	–	0.9386	–	–
